Earlier results in US9486545B2, “Method of screening for colon cancer using biomarkers” (H. Lee Moffitt Cancer Center and Research Institute, Inc., priority 2011, dated 2016).

Tested on: TLR4

IC50: 3.2 nM
Compound: CCOC(=O)C1=CCCC[C@H]1S(=O)(=O)Nc1ccc(F)cc1Cl [TAK 242, ethyl (6R)-6-[N-(2-Chloro-4-fluorophenyl)sulfamoyl]cyclohex-1-ene-1-carboxylate]
